Data reported in publication PMC7793531 (International Journal of Molecular Sciences, 2020).
Starred links: 1 amine or outer side, 2 acyl side, 3 side chain; linkers in the order of their positions; H or OH if unused. Non-standard residues stand in square brackets, D forms with d. Residues, ends and D or L forms follow the SMILES beside them. Groups on a side chain read outwards from the residue. ξ: configuration not given here. *: point of attachment. Oic(3aξ,7aξ) = O=C(O)[C@@H]1CC2CCCCC2N1; X1 = N=C(N)NCCCC[C@H](N)CN*; Dab = NCC[C@H](N)C(=O)O; CO = O=C([*:1])[*:2]

Biological target: T1, VEGF-A165/NRP-1 complex (Homo sapiens, UniProt O14786)
T1 construct: purchased R&D Systems
T1 sequence (O14786 22-641 limits assumed): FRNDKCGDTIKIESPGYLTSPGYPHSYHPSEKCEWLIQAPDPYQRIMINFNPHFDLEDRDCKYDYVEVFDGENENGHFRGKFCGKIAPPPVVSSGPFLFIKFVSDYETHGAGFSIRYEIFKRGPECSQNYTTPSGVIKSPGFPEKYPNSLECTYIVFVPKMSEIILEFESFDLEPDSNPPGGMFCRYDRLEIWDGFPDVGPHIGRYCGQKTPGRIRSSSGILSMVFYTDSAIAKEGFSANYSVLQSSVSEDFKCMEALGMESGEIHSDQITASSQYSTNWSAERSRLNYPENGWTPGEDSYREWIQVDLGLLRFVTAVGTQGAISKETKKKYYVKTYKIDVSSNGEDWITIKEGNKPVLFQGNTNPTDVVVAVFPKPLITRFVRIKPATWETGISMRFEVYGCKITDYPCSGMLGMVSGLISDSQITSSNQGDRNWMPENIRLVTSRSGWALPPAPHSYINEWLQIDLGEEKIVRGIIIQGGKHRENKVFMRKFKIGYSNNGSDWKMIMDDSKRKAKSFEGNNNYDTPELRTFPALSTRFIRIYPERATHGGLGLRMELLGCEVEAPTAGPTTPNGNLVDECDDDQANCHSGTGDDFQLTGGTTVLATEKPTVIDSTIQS
Assay: Competitive ELISA-like assay, inhibition of bt-VEGF-A165 binding to immobilized NRP-1
Settings: recombinant human NRP-1, bt-VEGF-A165, chemiluminescence; read-out: IC50, VEGF-A165/NRP-1 complex inhibitory effect
Protocol: Inhibitory activity of urea–peptide hybrids against VEGF-A165/NRP-1 complex formation was assessed with a screening ELISA-like assay. NRP-1 was immobilized on microplate wells by simple adsorption and urea–peptide hybrids competed for NRP-1 with biotinylated VEGF-A165 (bt-VEGF-A165). The amount of receptor bound bt-VEGF-A165 was visualized by its interaction with the streptavidin–horseradish peroxidase conjugate (strep-HRP) and the chemiluminescent substrate. The first analyzed group of compounds were analogues 1–3 with the urea bond between L1 and L2. […] The best hybrid in this group was compound 3, which had Lys^U (gDab) branching (where “g” corresponds to guanidinium group), but its IC50 value decreased only 2-fold. Therefore, we assume that no additional interactions between urea bond and the surface of the protein occurred. […] In the case of urea–peptide hybrids, the urea bond might be capable of forming additional hydrogen bonds with protein residues on the surface of NRP-1. The affinity of compounds may conceivably be affected by the colocation of the urea bond and the free amino group of hArg in the branching. In addition, for compounds 4–6, we can observe that decreasing the distance between the free amino group in the main chain and the urea bond in the branching has a positive effect on compounds’ affinity for NRP-1.
This method was previously described for NRP-1 [44, 45, 46]. Briefly, overnight coating at 4 °C of the flat bottom surface of a 96-well plate with 100 μL (200 ng/well) recombinant human NRP-1, NRP-2, VEGFR-1 or VEGFR-2 was followed by non-specific interactions blocking using 0.5% bovine serum albumin (BSA) in PBS. Next, 50 µL of urea–peptide hybrid in PBS and 50 µL (400 ng/mL) of human (bt)-VEGF-A165 in PBS containing 4 µg/mL of heparin were added respectively. Plates were incubated for 2 h at RT, and then washed and treated with streptavidin-horseradish peroxidase conjugate in PBS (1:8000). Next, 100 µL chemiluminescent substrate was added, and luminescence was quantified using Tecan Infinite F200Pro microplate reader (Männedorf, Switzerland). In a positive control (P) only (bt)-VEGF-A165 was present in wells. Not coated by receptor wells were treated as a negative control (N). Percentages of inhibition were calculated by the following formula:100% − [[(S − N)/(P − N)]∙100%](1) where S is the signal intensity measured in wells with urea–peptide hybrid. The IC50 of each urea–peptide hybrid was calculated using the nonlinear regression function with GraphPad Prism Version-5.01 (GraphPad Software, San Diego, CA, USA). Data are presented as log (inhibitor) versus normalized response-variable slope (Figure S16). Data are the means ± SEMs of two or three independent experiments, each performed in triplicate.

Q: With N=C(N)NCCCC[C@H](N)CNC(=O)NCC[C@H](N)C(=O)N[C@@H](CCN)C(=O)N1C2CCCCC2C[C@H]1C(=O)N[C@@H](CCCNC(=N)N)C(=O)O (stereo partly drawn) [Compound 6, H-Dab(hArg^U)Dab-Oic-Arg-OH] (H-[Dab]([CO-X1])[Dab][Oic(3aξ,7aξ)]R-OH) as the molecule, how does the IC50 read?
A: 190 nM
